Source: patent publication US20120094998A1, “Oligomer-Protein Tyrosine Kinase Inhibitor Conjugates” (Nektar Therapeutics, priority 2009, published 2012)
Values after ≈ are worked out from the molar mass of the structure shown.

Tests used:
PDGFRβ = PDGFRβ (Homo sapiens, UniProt P09619); test: Off-chip mobility-shift kinase assay (Caliper LABCHIP), PDGFR; details: for PDGFR AVG % Activity at 1.0E−06: concentration 1.0E−06; for PDGFR AVG % Activity at 1.0E−07: concentration 1.0E−07; for PDGFR AVG % Activity at 1.0E−08: concentration 1.0E−08; for PDGFR AVG % Activity at 1.0E−09: concentration 1.0E−09; for PDGFR AVG % Activity at 1.0E−10: concentration 1.0E−10; for PDGFR AVG % Activity at 3.0E−06: concentration 3.0E−06; for PDGFR AVG % Activity at 3.0E−07: concentration 3.0E−07; for PDGFR AVG % Activity at 3.0E−08: concentration 3.0E−08; for PDGFR AVG % Activity at 3.0E−09: concentration 3.0E−09; for PDGFR AVG % Activity at 3.0E−10: concentration 3.0E−10
[1] = Caco-2 permeability (bi-directional; pH 7.4/pH 7.4); format: in vitro ADME; details: human; for Papp A→B at 120 min, 10 μM: Caco-2, pH 7.4, read-out: Permeability (cm^2/s × 10^6); for efflux ratio at 120 min, 10 μM: Caco-2, ratio of B-A and A-B permeabilities
Protocol: Caco-2 cells are used as an in vitro model of the human intestinal epithelium and permit assessment of the intestinal permeability of potential drugs. Test compound is added to either the apical or basolateral side of a confluent monolayer of Caco-2 cells and permeability is measured by monitoring the appearance of the test compound on the opposite side of the membrane using LC-MS/MS. Apparent permeability (Papp) coefficients, efflux ratio for the test compound and recovery values were determined.
To measure the permeability of test compound in the apical to basolateral (A-B) and basolateral to apical (B-A) direction across Caco-2 cells.
Caco-2 cells obtained from the ATCC are used between passage numbers 40-60. Cells are seeded on to Millipore Multiscreen Caco-2 plates at 1×10^5 cells/cm^2. They are cultured for 20 days in DMEM and media is changed every two or three days. On day 20 the permeability study is performed.
On day 20, the monolayers are prepared by rinsing both basolateral and apical surfaces twice with HBSS at 37° C. Cells are then incubated with HBSS in both apical and basolateral compartments for 40 min to stabilize physiological parameters. HBSS is then removed from the apical compartment and replaced with test compound dosing solutions. […] The fluorescent integrity marker lucifer yellow is also included in the dosing solution. Analytical standards are made from dosing solutions. The apical compartment inserts are then placed into ‘companion’ plates containing fresh HBSS. For basolateral to apical (B-A) permeability determination the experiment is initiated by replacing buffer in the inserts then placing them in companion plates containing dosing solutions. At 120 minutes the companion plate is removed and apical and basolateral samples diluted for analysis by LC-MS/MS. Test compound permeability was assessed in duplicate. On each plate, compounds of known permeability characteristics were run as controls.
Test and control compounds were quantified by LC-MS/MS cassette analysis using a 5-point calibration with appropriate dilution of the samples. Cyprotex generic analytical conditions were used. The starting concentration (C0) and experimental recovery were calculated from both apical and basolateral compartment concentrations.
The integrity of the monolayers throughout the experiment was checked by monitoring lucifer yellow permeation using fluorimetric analysis. Lucifer yellow permeation is low if monolayers have not been damaged. […] If lucifer yellow Papp values are above QC limits in both replicate wells for a test compound, the compound was re-tested.
Data Analysis: The permeability coefficient for each compound (Papp) is calculated from the following equation: […]
wherein dQ/dt is the rate of permeation of the drug across the cells, C0 is the donor compartment concentration at time zero and A is the area of the cell monolayer. C0 is obtained from analysis of donor and receiver compartments at the end of the incubation period. It is assumed that all of the test compound measured after 120 minutes incubation was initially present in the donor compartment at 0 minutes. An efflux ratio (ER) is derived as follows:
Talinolol (a known P-gp substrate) is also included as a control compound to assess whether functional P-gp is present in the Caco-2 cell monolayer.

Thermodynamic solubility = format: physicochemical; details: aqueous buffer, thermodynamic from solid; phosphate buffered saline, pH 7.4; ambient temperature overnight
Protocol: Test compound (2.5 mg of solid; n=1) is weighed in a clear glass vial and buffer (0.5 mL) is added (phosphate buffered saline, pH 7.4). The solution is agitated at ambient temperature overnight using a vial roller system. […] Duplicate aliquots (50 μL) are sampled from the filtrate and diluted with one volume of 0.1 N hydrochloric acid and methanol (1:1 v/v) before analysis by HPLC-UV. […] The concentration of test compound in the filtrate is quantified relative to the concentration standard.
Analysis is performed using a gradient HPLC-UV system with a total cycle time of six minutes.

cKIT = cKIT (Homo sapiens, UniProt P10721); test: Off-chip mobility-shift kinase assay (Caliper LABCHIP), C-kit; details: for C-kit AVG % Activity at 1.0E−05: concentration 1.0E−05; for C-kit AVG % Activity at 1.0E−06: concentration 1.0E−06; for C-kit AVG % Activity at 1.0E−07: concentration 1.0E−07; for C-kit AVG % Activity at 1.0E−08: concentration 1.0E−08; for C-kit AVG % Activity at 3.0E−05: concentration 3.0E−05; for C-kit AVG % Activity at 3.0E−06: concentration 3.0E−06; for C-kit AVG % Activity at 3.0E−07: concentration 3.0E−07; for C-kit AVG % Activity at 3.0E−08: concentration 3.0E−08; for C-kit AVG % Activity at 3.0E−09: concentration 3.0E−09
ABL = ABL (Homo sapiens, UniProt P00519); test: Off-chip mobility-shift kinase assay (Caliper LABCHIP), ABL; details: for ABL AVG % Activity at 1.0E−06: concentration 1.0E−06; for ABL AVG % Activity at 1.0E−06 / ABL AVG % Activity at 1.0E−07 / ABL AVG % Activity at 1.0E−08 / ABL AVG % Activity at 1.0E−09 / ABL AVG % Activity at 1.0E−10 / ABL AVG % Activity at 3.0E−06 / ABL AVG % Activity at 3.0E−07 / ABL AVG % Activity at 3.0E−08 / ABL AVG % Activity at 3.0E−09 / ABL AVG % Activity at 3.0E−10: imatinib-corresponding compounds; for ABL AVG % Activity at 1.0E−07: concentration 1.0E−07; for ABL AVG % Activity at 1.0E−08: concentration 1.0E−08; for ABL AVG % Activity at 1.0E−09: concentration 1.0E−09; for ABL AVG % Activity at 1.0E−10: concentration 1.0E−10; for ABL AVG % Activity at 3.0E−06: concentration 3.0E−06; for ABL AVG % Activity at 3.0E−07: concentration 3.0E−07; for ABL AVG % Activity at 3.0E−08: concentration 3.0E−08; for ABL AVG % Activity at 3.0E−09: concentration 3.0E−09; for ABL AVG % Activity at 3.0E−10: concentration 3.0E−10
Sequence of ABL (P00519 whole entry): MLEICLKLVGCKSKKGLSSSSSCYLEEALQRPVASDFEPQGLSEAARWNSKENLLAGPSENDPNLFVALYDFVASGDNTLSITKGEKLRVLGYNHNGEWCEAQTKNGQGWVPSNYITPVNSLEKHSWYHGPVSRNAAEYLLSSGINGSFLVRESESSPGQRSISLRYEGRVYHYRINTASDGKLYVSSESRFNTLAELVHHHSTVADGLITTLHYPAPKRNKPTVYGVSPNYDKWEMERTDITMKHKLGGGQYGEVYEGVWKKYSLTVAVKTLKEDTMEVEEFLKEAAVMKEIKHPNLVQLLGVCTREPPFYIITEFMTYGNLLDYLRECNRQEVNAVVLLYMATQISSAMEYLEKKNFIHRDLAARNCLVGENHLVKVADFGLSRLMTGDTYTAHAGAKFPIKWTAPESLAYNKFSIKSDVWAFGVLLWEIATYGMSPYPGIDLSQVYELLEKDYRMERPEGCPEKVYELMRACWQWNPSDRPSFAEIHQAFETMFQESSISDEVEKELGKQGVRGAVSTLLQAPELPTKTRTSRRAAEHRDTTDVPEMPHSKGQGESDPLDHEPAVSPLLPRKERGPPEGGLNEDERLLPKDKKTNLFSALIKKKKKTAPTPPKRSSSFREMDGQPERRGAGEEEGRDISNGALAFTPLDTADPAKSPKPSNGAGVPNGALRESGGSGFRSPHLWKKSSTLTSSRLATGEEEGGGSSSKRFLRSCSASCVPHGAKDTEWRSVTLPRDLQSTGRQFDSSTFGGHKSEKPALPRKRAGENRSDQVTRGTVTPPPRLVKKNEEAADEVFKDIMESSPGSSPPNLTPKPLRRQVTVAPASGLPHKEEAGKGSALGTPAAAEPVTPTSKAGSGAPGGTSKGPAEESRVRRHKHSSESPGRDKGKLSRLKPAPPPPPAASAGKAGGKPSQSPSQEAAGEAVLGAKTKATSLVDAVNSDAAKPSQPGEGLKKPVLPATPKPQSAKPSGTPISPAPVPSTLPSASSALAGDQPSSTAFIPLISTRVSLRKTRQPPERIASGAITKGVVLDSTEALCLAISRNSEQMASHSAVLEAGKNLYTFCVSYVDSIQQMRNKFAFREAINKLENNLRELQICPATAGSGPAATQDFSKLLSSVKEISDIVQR

Sequence of PDGFRβ (P09619 33-1106): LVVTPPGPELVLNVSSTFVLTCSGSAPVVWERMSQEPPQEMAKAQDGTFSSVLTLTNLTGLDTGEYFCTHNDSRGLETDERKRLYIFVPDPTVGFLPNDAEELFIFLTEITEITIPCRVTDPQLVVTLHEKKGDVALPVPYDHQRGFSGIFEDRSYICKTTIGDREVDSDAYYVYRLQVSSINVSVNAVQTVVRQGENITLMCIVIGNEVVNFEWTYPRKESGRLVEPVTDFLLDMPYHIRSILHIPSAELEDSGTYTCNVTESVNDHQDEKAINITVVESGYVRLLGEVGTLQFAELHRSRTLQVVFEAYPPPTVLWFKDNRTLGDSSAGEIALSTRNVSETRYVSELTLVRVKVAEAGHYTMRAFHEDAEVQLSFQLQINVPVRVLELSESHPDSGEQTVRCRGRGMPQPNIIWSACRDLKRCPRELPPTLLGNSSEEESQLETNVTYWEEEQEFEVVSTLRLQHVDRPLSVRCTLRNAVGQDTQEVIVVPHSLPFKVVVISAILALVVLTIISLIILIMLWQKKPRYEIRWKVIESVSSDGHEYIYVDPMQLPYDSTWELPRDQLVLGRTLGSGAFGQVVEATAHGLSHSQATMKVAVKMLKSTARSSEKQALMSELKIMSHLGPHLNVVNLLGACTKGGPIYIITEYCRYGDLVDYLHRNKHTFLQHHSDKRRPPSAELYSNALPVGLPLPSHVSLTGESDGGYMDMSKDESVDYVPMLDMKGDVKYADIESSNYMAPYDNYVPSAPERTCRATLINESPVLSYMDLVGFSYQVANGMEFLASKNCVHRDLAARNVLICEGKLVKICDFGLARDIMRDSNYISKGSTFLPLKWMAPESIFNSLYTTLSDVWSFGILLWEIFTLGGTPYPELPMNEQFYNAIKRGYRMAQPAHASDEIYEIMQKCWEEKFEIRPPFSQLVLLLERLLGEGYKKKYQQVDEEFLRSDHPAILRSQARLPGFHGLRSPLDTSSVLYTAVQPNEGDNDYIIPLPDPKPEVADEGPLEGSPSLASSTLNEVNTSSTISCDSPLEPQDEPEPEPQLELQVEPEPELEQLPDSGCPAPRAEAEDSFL
Sequence of cKIT (P10721 26-976): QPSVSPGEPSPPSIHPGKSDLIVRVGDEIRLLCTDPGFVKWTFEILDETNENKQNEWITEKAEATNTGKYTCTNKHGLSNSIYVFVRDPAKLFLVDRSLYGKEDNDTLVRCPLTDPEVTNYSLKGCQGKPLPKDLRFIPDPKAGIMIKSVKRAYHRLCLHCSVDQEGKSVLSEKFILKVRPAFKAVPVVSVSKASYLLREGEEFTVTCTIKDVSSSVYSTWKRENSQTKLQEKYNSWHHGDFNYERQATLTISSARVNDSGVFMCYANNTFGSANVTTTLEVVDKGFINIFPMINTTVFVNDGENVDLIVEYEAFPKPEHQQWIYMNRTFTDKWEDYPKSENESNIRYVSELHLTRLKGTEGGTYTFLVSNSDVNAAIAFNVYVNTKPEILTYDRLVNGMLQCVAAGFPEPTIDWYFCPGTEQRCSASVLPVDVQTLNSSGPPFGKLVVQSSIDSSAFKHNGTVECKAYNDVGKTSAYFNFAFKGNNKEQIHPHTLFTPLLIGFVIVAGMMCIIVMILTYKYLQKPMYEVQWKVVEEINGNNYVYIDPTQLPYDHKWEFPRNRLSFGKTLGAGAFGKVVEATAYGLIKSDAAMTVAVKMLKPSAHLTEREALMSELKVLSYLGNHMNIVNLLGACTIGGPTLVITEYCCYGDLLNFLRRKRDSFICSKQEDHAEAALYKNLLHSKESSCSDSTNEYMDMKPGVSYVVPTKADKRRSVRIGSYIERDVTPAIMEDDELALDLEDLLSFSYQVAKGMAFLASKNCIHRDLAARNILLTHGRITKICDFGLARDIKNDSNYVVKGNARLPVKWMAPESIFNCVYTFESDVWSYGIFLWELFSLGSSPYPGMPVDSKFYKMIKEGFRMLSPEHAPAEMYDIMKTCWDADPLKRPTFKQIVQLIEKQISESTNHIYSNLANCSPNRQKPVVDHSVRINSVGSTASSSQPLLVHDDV

| IC50 (PDGFRβ) | PDGFR AVG % Activity at 1.0E−06 (PDGFRβ) | PDGFR AVG % Activity at 1.0E−07 (PDGFRβ) | PDGFR AVG % Activity at 1.0E−08 (PDGFRβ) | PDGFR AVG % Activity at 1.0E−09 (PDGFRβ) | PDGFR AVG % Activity at 1.0E−10 (PDGFRβ) | PDGFR AVG % Activity at 3.0E−06 (PDGFRβ) | PDGFR AVG % Activity at 3.0E−07 (PDGFRβ) | PDGFR AVG % Activity at 3.0E−08 (PDGFRβ) | PDGFR AVG % Activity at 3.0E−09 (PDGFRβ) | PDGFR AVG % Activity at 3.0E−10 (PDGFRβ) | Papp A→B at 120 min, 10 μM [1] | efflux ratio at 120 min, 10 μM [1] | solubility (Thermodynamic solubility) | IC50 (cKIT) | C-kit AVG % Activity at 1.0E−05 (cKIT) | C-kit AVG % Activity at 1.0E−06 (cKIT) | C-kit AVG % Activity at 1.0E−07 (cKIT) | C-kit AVG % Activity at 1.0E−08 (cKIT) | C-kit AVG % Activity at 3.0E−05 (cKIT) | SMILES | further results |
| --- | --- | --- | --- | --- | --- | --- | --- | --- | --- | --- | --- | --- | --- | --- | --- | --- | --- | --- | --- | --- | --- |
| 340 nM | 13% | 74% | 95% | 99% | 92% | 0% | 48% | 86% | 100% | 95% | 0.05 ± 0.02 ×10⁻⁶ cm/s | 359 | 2500 µg/mL (≈ 2.81 mM) | 550 nM | 2% | 35% | 82% | 91% | 0% | COCCOCCOCCOCCOCCOCCOCCOCCOCCN1CCN(Cc2ccc(C(=O)Nc3ccc(C)c(Nc4nccc(-c5cccnc5)n4)c3)cc2)CC1 [mPEG9-N′-Imatinib] | C-kit AVG % Activity at 3.0E−06 (cKIT): 12%; C-kit AVG % Activity at 3.0E−07 (cKIT): 64%; C-kit AVG % Activity at 3.0E−08 (cKIT): 92%; C-kit AVG % Activity at 3.0E−09 (cKIT): 95%; IC50 (ABL): 3800 nM; ABL AVG % Activity at 1.0E−06 (ABL): 69%; ABL AVG % Activity at 1.0E−07 (ABL): 84%; ABL AVG % Activity at 1.0E−08 (ABL): 93%; ABL AVG % Activity at 1.0E−09 (ABL): 97%; ABL AVG % Activity at 1.0E−10 (ABL): 97%; ABL AVG % Activity at 3.0E−06 (ABL): 49%; ABL AVG % Activity at 3.0E−07 (ABL): 79%; ABL AVG % Activity at 3.0E−08 (ABL): 89%; ABL AVG % Activity at 3.0E−09 (ABL): 96%; ABL AVG % Activity at 3.0E−10 (ABL): 97% |
| 230 nM | 13% | 67% | 96% | 93% | 97% | 0% | 39% | 100% | 99% | 93% | 0.04 ± 0.01 ×10⁻⁶ cm/s | 391 | 3600 µg/mL (≈ 4.91 mM) | 1000 nM | 6% | 50% | 88% | 100% | 1% | COCCOCCOCCOCCOCCOCCOCCNCc1ccc(C(=O)Nc2ccc(C)c(Nc3nccc(-c4cccnc4)n3)c2)cc1 | C-kit AVG % Activity at 3.0E−06 (cKIT): 23%; C-kit AVG % Activity at 3.0E−07 (cKIT): 76%; C-kit AVG % Activity at 3.0E−08 (cKIT): 95%; C-kit AVG % Activity at 3.0E−09 (cKIT): 99%; IC50 (ABL): ≥ 3000 nM; ABL AVG % Activity at 1.0E−06 (ABL): 73%; ABL AVG % Activity at 1.0E−07 (ABL): 90%; ABL AVG % Activity at 1.0E−08 (ABL): 94%; ABL AVG % Activity at 1.0E−09 (ABL): 97%; ABL AVG % Activity at 1.0E−10 (ABL): 97%; ABL AVG % Activity at 3.0E−06 (ABL): 59%; ABL AVG % Activity at 3.0E−07 (ABL): 82%; ABL AVG % Activity at 3.0E−08 (ABL): 94%; ABL AVG % Activity at 3.0E−09 (ABL): 96%; ABL AVG % Activity at 3.0E−10 (ABL): 97% |
